Type in all cases: in vivo
One experiment relates to Abutilon theophrasti. Nature of the experiment: Greenhouse pre-emergence (PRE) herbicidal test on ABUTH. The following applies: Abutilon theophrasti, pre-emergence, ABUTH PRE, use rate 50 gai/ha. In short, it runs like this:
(§1)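 Pre-emergence greenhouse assay: sown loamy-sand pots (humus approx. 3.0%) were kept under transparent hoods until rooting, then grown at species-appropriate 10-25° C or 20-35° C. Response ratings of 0 (no damage) to 100 (no plants emerged) were recorded 20 days after application.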

For the next experiment, the system named is Alopecurus myosuroides. Nature of the experiment: Greenhouse pre-emergence (PRE) herbicidal test on ALOMY. The following applies: Alopecurus myosuroides, pre-emergence, ALOMY PRE, use rate 200 gai/ha. Put shortly: as §1
The test system of the next experiment is Avena fatua. Nature of the experiment: Greenhouse pre-emergence (PRE) herbicidal test on AVEFA. An excerpt: (§2) The culture containers used were plastic pots containing loamy sand with approximately 3.0% of humus as substrate. The seeds of the test plants were sown separately for each species.
(§3) For the pre-emergence treatment, the active compounds, suspended or emulsified in water, were applied directly after sowing by means of finely distributing nozzles. The containers were irrigated gently to promote germination and growth and subsequently covered with transparent plastic hoods until the plants had rooted. This cover caused uniform germination of the test plants unless this was adversely affected by the active compounds.
(§4) Depending on the species, the plants were kept at 10-25° C. and 20-35° C., respectively.
(§5) The test period extended over 2 to 4 weeks. During this time, the plants were tended and their response to the individual treatments was evaluated.
(§6) Evaluation was carried out using a scale from 0 to 100. 100 means no emergence of the plants, or complete destruction of at least the above-ground parts, and 0 means no damage or normal course of growth. A good herbicidal activity is given at values of at least 70, and very good herbicidal activity is given at values of at least 85.
(§7) If not stated differently, the respective components A and B, and if appropriate, C were formulated as a 5% by weight strength emulsion concentrate and, with addition of the amount of solvent system, introduced into the spray liquor used for applying the active compound.
(§8) As indicated application was either post emergent (POST) at the respective growth stage (GS) of the weed (BBCH code), or pre-emergent (PRE).
(§9) Assessment was 20 days after treatment (DAT).

The subject of another experiment is Brachiaria decumbens. Nature of the experiment: Greenhouse pre-emergence (PRE) herbicidal test on BRADC. The following applies: Urochloa decumbens; for inhibition at 200 g/ha: use rate 200 gai/ha.
From the text: as §2, §3, §4, §5, §6, §7, §8, §9

Another experiment relates to Commelina benghalensis. Nature of the experiment: Greenhouse pre-emergence (PRE) herbicidal test on COMBE. The following applies: Commelina benghalensis, pre-emergence, COMBE PRE, use rate 50 gai/ha. In short, it runs like this:
as §1

For another experiment, the system named is Euphorbia heterophylla. Nature of the experiment: Greenhouse pre-emergence (PRE) herbicidal test on EPHHL. The following applies: Euphorbia heterophylla, pre-emergence; for inhibition at 200 g/ha: use rate 200 gai/ha. Put shortly: as §1
A further experiment has as its system Geranium pusillum. Nature of the experiment: Greenhouse pre-emergence (PRE) herbicidal test on GERPU. The note with it: Geranium pusillum, pre-emergence; for inhibition at 200 g/ha: use rate 200 gai/ha.
From the text: as §2, §3, §4, §5, §6, §7, §8, §9

The subject of another experiment is Lolium multiflorum. Nature of the experiment: Greenhouse pre-emergence (PRE) herbicidal test on LOLMU. Put shortly:
as §1

In the next experiment the test system is SETFA. Nature of the experiment: Greenhouse pre-emergence (PRE) herbicidal test on SETFA. The following applies: Setaria faberi, use rate 50 gai/ha.
For the next experiment, the system named is Galium aparine. Nature of the experiment: Greenhouse pre-emergence (PRE) herbicidal test on GALAP. The note with it: Galium aparine, pre-emergence; PRE; GALAP; use rate 200 gai/ha.
From the text: as §2, §3, §4, §5, §6, §7, §8, §9

In another experiment the test system is Polygonum convolvulus. Nature of the experiment: Greenhouse pre-emergence (PRE) herbicidal test on POLCO. The following applies: Fallopia convolvulus, pre-emergence.
From the text: as §2, §3, §4, §5, §6, §7, §8, §9

The test system of a further experiment is Ambrosia artemisiifolia. Nature of the experiment: Greenhouse pre-emergence (PRE) herbicidal test on AMBEL. The following applies: PRE, use rate 12.5 gai/ha, 20 DAT.
Experiment [1] deals with AMAPA. Nature of the experiment: Greenhouse pre-emergence (PRE) herbicidal test on AMAPA. The note with it: use rate 3.1 gai/ha, 20 DAT.
Experiment [2] has as its system AMAPA. Nature of the experiment: Greenhouse post-emergence (POST) herbicidal test on AMAPA. The following applies: use rate 12.5 gai/ha, 20 DAT.

The structures appear in SMILES notation.

As usually defined, the inhibition is the percentage by which the read-out fell short of the control. Regarding `CCCCOCN(C(=O)CCl)c1c(CC)cccc1CC` [Butachlor, butachlor], the inhibition at 50 g/ha in the experiment with Abutilon theophrasti stood at 0%; in the experiment with Avena fatua (use rate 50 gai/ha), 0%; in the experiment with Commelina benghalensis it was 70%; in the experiment on Geranium pusillum (GERPU PRE, use rate 50 gai/ha) it was 55%; with Lolium multiflorum (Lolium multiflorum, pre-emergence, LOLMU PRE, use rate 50 gai/ha) it was 0%; in the experiment with SETFA, 25%. Besides, the inhibition at 200 g/ha in the experiment with Alopecurus myosuroides came out at 0%; in the experiment with Avena fatua (use rate 200 gai/ha) it was 0%; in the experiment on Brachiaria decumbens (BRADC PRE) it was 30%; in the experiment on Euphorbia heterophylla (EPHHL PRE), 5%; with Geranium pusillum (GERPU PRE), 25%; in the experiment on Lolium multiflorum (Lolium multiflorum, pre-emergence, LOLMU PRE, use rate 200 gai/ha), 0%.

As to `CCCOCCN(C(=O)CCl)c1c(CC)cccc1CC` [Pretilachlor, pretilachlor], the inhibition at 25 g/ha in the experiment on Brachiaria decumbens (PRE, BRADC, use rate 25 gai/ha) worked out at 0%; in the experiment on Euphorbia heterophylla (PRE, EPPHL, use rate 25 gai/ha) it was 0%; in the experiment on Lolium multiflorum (Lolium multiflorum, pre-emergence, PRE, LOLMU, use rate 25 gai/ha), 0%; in the experiment on Polygonum convolvulus (use rate 25 gai/ha) it was 0%. Moreover, the inhibition at 200 g/ha in the experiment on Brachiaria decumbens (PRE, BRADC) came to 40%; with Euphorbia heterophylla (PRE, EPPHL), 10%; with Galium aparine, 15%; in the experiment on Geranium pusillum (PRE, GERPU), 45%; in the experiment on Polygonum convolvulus (use rate 200 gai/ha), 30%.

On to `C#CCN(C)c1c(C#N)cnn1-c1nn2c(c1Cl)CCCC2` [Pyraclonil, pyraclonil], for which the “% activity” value in the experiment with Ambrosia artemisiifolia came out at 0%; with Lolium multiflorum (PRE, use rate 12.5 gai/ha, 20 DAT) it was 0%; in the experiment with AMAPA [1], 50%; with AMAPA [2], 90%.

(Values after US20260007133A1, “HERBICIDAL COMPOSITION COMPRISING AZINE COMPOUNDS” (BASF SE, priority 2022, published 2026).)
